Data on 28 molecules can be found in patent US10106556B2, “Heterocyclic compound” (TAKEDA PHARMACEUTICAL COMPANY LIMITED, priority 2015, dated 2018).

One test deals with T1, His-hMAGL (recombinant polyhistidine tagged human MAGL protein) (Homo sapiens, UniProt Q99685).
T1 construct: made in house; host or cells: E. coli BL21(DE3)
T1 sequence (Q99685 1-303): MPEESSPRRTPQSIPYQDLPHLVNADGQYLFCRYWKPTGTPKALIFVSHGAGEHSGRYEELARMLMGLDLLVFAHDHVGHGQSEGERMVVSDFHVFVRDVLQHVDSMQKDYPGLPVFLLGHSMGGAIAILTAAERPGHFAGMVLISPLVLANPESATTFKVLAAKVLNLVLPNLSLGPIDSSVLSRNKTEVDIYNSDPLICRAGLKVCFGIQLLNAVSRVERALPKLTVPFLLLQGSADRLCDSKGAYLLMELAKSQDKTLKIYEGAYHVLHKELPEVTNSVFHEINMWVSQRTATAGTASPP
Description: Measurement of MAGL inhibitory activity (arachidonic acid production from 2-arachidonylglycerol, RapidFire-mass spectrometry). To be noted: MAGL inhibitory rate at 10 μM test compound; 60 min preincubation with His-hMAGL, 2-arachidonylglycerol substrate, 10 min reaction at room temperature. The test is classed as biochemical. As to the method:
Furthermore, acetonitrile (50 μL) containing 3 μM arachidonic acid-d8 (Cayman Chemical Company) was added and the mixture was stirred.
The amount of arachidonic acid in the obtained enzyme reaction mixture was calculated by measuring by RapidFire-mass spectrometry and correcting by the amount of arachidonic acid-d8. High Throughput online solid phase extraction was performed using RapidFire 300™ system (Agilent Technologies, Inc.). Samples were loaded on SPE C4 cartridge (Agilent Technologies, Inc.) and desalted with 0.2 (v/v) % acetic acid (Wako Pure Chemical Industries, Ltd.) in ultrapure water/acetonitrile (70/30, v/v) at a flow rate of 1.5 mL/min, eluted at a flow rate of 0.5 mL/min with 0.2 (v/v) % acetic acid dissolved in acetonitrile/ultrapure water (90/10, v/v), and injected into the mass spectrometry part. The injection needle was washed with ultrapure water (500 millisecond) and acetonitrile (500 millisecond) to minimize carry-over. […] The RapidFire300 system was controlled by RapidFire UI software version 3.6 (Agilent Technologies, Inc.).
The mass spectrometry of the resultant product was performed using API4000™ triple quadrupole mass spectrometer (AB SCIEX) equipped with an electrospray ion sauce (TurboIon Spray™) in a negative selected reaction monitoring (SRM) mode. The conditions of SRM are shown below. The parameters of the instrument were optimized as follows: capillary temperature 600° C., ion spray voltage −4.5 kV, collision gas 8, curtain gas 15 psi, ion source gas 1 60 psi, ion source gas 2 60 psi. The mass spectrometer was controlled by Analyst™ software version 1.5.1 (AB SCIEX). The peak area integration was analyzed using RapidFire integrator software version 3.6 (Agilent Technologies, Inc.).
MAGL inhibitory rate (%) was calculated according to the following calculation formula. (1−(arachidonic acid production amount of test compound addition group−arachidonic acid production amount of enzyme−free group)÷(arachidonic acid production amount of test compound-free group−arachidonic acid production amount of enzyme-free group))×100
As for `O=C1COc2cc(F)c(C(=O)N3CC(COc4ccc5cnccc5c4)C3)cc2N1` [Example 173, 7-fluoro-6-((3-((isoquinolin-6-yloxy)methyl)azetidin-1-yl)carbonyl)-2H-1,4-benzoxazin-3(4H)-one], the inhibition at 10 µM amounted to 98%.

Regarding `O=C1COc2cc(F)c(C(=O)N3CC(COc4ccc(Cl)cc4-c4cccnc4Cl)C3)cc2N1` [Example 198, 6-((3-((4-chloro-2-(2-chloropyridin-3-yl)phenoxy)methyl)azetidin-1-yl)carbonyl)-7-fluoro-2H-1,4-benzoxazin-3(4H)-one], the inhibition at 10 µM was 100%.

As for `O=C1COc2cc(F)c(C(=O)N3CC(OCc4ccc(F)cc4Cl)C3)cc2N1` [Example 322, 6-((3-((2-chloro-4-fluorobenzyl)oxy)azetidin-1-yl)carbonyl)-7-fluoro-2H-1,4-benzoxazin-3(4H)-one], the inhibition at 10 µM came out at 101%.

Take `O=C1COc2cc(F)c(C(=O)N3CC(OCc4ccc(-n5cccn5)cc4)C3)cc2N1` [Example 338, 7-fluoro-6-((3-((4-(1H-pyrazol-1-yl)benzyl)oxy)azetidin-1-yl)carbonyl)-2H-1,4-benzoxazin-3(4H)-one]: the inhibition at 10 µM amounted to 101%.

On to `O=C1COc2ccc(C(=O)N3CCC(COc4ccccc4Cl)CC3)cc2N1` [Example 24, 6-((4-((2-chlorophenoxy)methyl)piperidin-1-yl)carbonyl)-2H-1,4-benzoxazin-3 (4H)-one], for which the inhibition at 10 µM was 101%.

Take `O=C1COc2cc(F)c(C(=O)N3CC(COc4ccc(-c5cncc(F)c5)cc4F)C3)cc2N1` [Example 234, 7-fluoro-6-((3-((2-fluoro-4-(5-fluoropyridin-3-yl)phenoxy)methyl)azetidin-1-yl)carbonyl)-2H-1,4-benzoxazin-3(4H)-one]: the inhibition at 10 µM was found to be 97%.

`O=C1COc2cc(F)c(C(=O)N3CC(OCc4ccc(C(F)(F)F)cc4F)C3)cc2N1` [Example 345, 7-fluoro-6-((3-((2-fluoro-4-(trifluoromethyl)benzyl)oxy)azetidin-1-yl)carbonyl)-2H-1,4-benzoxazin-3(4H)-one]: the inhibition at 10 µM amounted to 101%.

As for `O=C1COc2ccc(C(=O)N3CCC(COc4ccc(F)cc4Cl)CC3)cc2N1` [Example 26, 6-((4-((2-chloro-4-fluorophenoxy)methyl)piperidin-1-yl)carbonyl)-2H-1,4-benzoxazin-3 (4H)-one], the inhibition at 10 µM was 101%.

Turning to `Cc1cc(-c2ccc(OCC3CN(C(=O)c4cc5c(cc4F)OCC(=O)N5)C3)c(F)c2)ccn1` [Example 264, 7-fluoro-6-((3-((2-fluoro-4-(2-methylpyridin-4-yl)phenoxy)methyl)azetidin-1-yl)carbonyl)-2H-1,4-benzoxazin-3(4H)-one], the inhibition at 10 µM turned out to be 101%.

On to `O=C1COc2ccc(C(=O)N3CCC(COc4ccccc4C4CC4)CC3)cc2N1` [Example 65, 6-((4-((2-cyclopropylphenoxy)methyl)piperidin-1-yl)carbonyl)-2H-1,4-benzoxazin-3(4H)-one], for which the inhibition at 10 µM was 96%.

`O=C1COc2cc(F)c(C(=O)N3CC(COc4noc5ccc(Cl)cc45)C3)cc2N1` [Example 180, 6-((3-(((5-chloro-1,2-benzoxazol-3-yl)oxy)methyl)azetidin-1-yl)carbonyl)-7-fluoro-2H-1,4-benzoxazin-3(4H)-one]: the inhibition at 10 µM is 96%.

Take `Cn1cc(-c2cc(Cl)ccc2OCC2CN(C(=O)c3cc4c(cc3F)OCC(=O)N4)C2)cn1` [Example 213, 6-((3-((4-chloro-2-(1-methyl-1H-pyrazol-4-yl)phenoxy)methyl)azetidin-1-yl)carbonyl)-7-fluoro-2H-1,4-benzoxazin-3(4H)-one]: the inhibition at 10 µM is 100%.

In the case of `O=C1COc2cc(F)c(C(=O)N3CC(COc4ccc(F)cc4Cl)C3)cc2N1` [Example 77, 6-((3-((2-chloro-4-fluorophenoxy)methyl)azetidin-1-yl)carbonyl)-7-fluoro-2H-1,4-benzoxazin-3(4H)-one], the inhibition at 10 µM came out at 105%.

Consider `O=C1COc2cc(F)c(C(=O)N3CC(COc4ccc(F)c(C(F)(F)F)c4)C3)cc2N1` [Example 278, 7-fluoro-6-((3-((4-fluoro-3-(trifluoromethyl)phenoxy)methyl)azetidin-1-yl)carbonyl)-2H-1,4-benzoxazin-3(4H)-one], for which the inhibition at 10 µM worked out at 103%.

On to `O=C1COc2cc(F)c(C(=O)N3CC(COc4ccc(F)cc4Cl)C3)c(F)c2N1` [Example 281, 6-((3-((2-chloro-4-fluorophenoxy)methyl)azetidin-1-yl)carbonyl)-5,7-difluoro-2H-1,4-benzoxazin-3(4H)-one], for which the inhibition at 10 µM came to 100%.

`O=C1COc2cc(F)c(C(=O)N3CCC(COc4cccn5nccc45)CC3)cc2N1` [Example 274, 7-fluoro-6-((4-((pyrazolo[1,5-a]pyridin-4-yloxy)methyl)piperidin-1-yl)carbonyl)-2H-1,4-benzoxazin-3(4H)-one]: the inhibition at 10 µM is 102%.

Regarding `O=C1COc2cc(F)c(C(=O)N3CCC(COc4ccc(F)cc4-c4ccccc4)CC3)cc2N1` [Example 100, 7-fluoro-6-((4-(((5-fluorobiphenyl-2-yl)oxy)methyl)piperidin-1-yl)carbonyl)-2H-1,4-benzoxazin-3(4H)-one], the inhibition at 10 µM amounted to 98%.

As for `O=C1COc2cc(F)c(C(=O)N3CC(OCc4cccc(C(F)F)c4)C3)cc2N1` [Example 339], the inhibition at 10 µM stood at 103%.

Consider `O=C1COc2cc(F)c(C(=O)N3CC(COc4ccc(Cl)cc4-c4ccncc4)C3)cc2N1` [Example 206, 6-((3-((4-chloro-2-(pyridin-4-yl)phenoxy)methyl)azetidin-1-yl)carbonyl)-7-fluoro-2H-1,4-benzoxazin-3(4H)-one], for which the inhibition at 10 µM was 104%.

As for `CC(Oc1ccc(F)cc1F)C1CN(C(=O)c2cc3c(cc2F)OCC(=O)N3)C1` (stereo not shown) [Example 298, 6-((3-(1-(2,4-difluorophenoxy)ethyl)azetidin-1-yl)carbonyl)-7-fluoro-2H-1,4-benzoxazin-3(4H)-one], the inhibition at 10 µM was 99%.

Turning to `N#Cc1ccc(COC2CN(C(=O)c3cc4c(cc3F)OCC(=O)N4)C2)cc1` [Example 335, 4-(((1-((7-fluoro-3-oxo-3,4-dihydro-2H-1,4-benzoxazin-6-yl)carbonyl)azetidin-3-yl)oxy)methyl) benzonitrile], the inhibition at 10 µM is 102%.

As for `Cc1cc(Cl)ccc1OCC1CCN(C(=O)c2ccc3c(c2)NC(=O)CO3)CC1` [Example 37, 6-((4-((4-chloro-2-methylphenoxy)methyl)piperidin-1-yl)carbonyl)-2H-1,4-benzoxazin-3(4H)-one], the inhibition at 10 µM was determined as 101%.

For `O=C(c1cc2[nH]c(=O)oc2cc1F)N1CCC(COc2ccc(F)cc2Cl)CC1` [Example 101, 5-((4-((2-chloro-4-fluorophenoxy)methyl)piperidin-1-yl)carbonyl)-6-fluoro-1,3-benzoxazol-2(3H)-one], the inhibition at 10 µM is 99%.

As to `O=C1COc2cc(F)c(C(=O)N3CC(COc4cccc5nccnc45)C3)cc2N1` [Example 139, 7-fluoro-6-((3-((quinoxalin-5-yloxy)methyl)azetidin-1-yl)carbonyl)-2H-1,4-benzoxazin-3(4H)-one], the inhibition at 10 µM was 92%.

As for `N#Cc1cccc(COC2CN(C(=O)c3cc4c(cc3F)OCC(=O)N4)C2)c1` [Example 334, 3-(((1-((7-fluoro-3-oxo-3,4-dihydro-2H-1,4-benzoxazin-6-yl)carbonyl)azetidin-3-yl)oxy)methyl) benzonitrile], the inhibition at 10 µM stood at 98%.

Consider `O=C1COc2cc(F)c(C(=O)N3CC(COc4ccc(-c5ccccc5)cc4)C3)cc2N1` [Example 108, 6-((3-((biphenyl-4-yloxy)methyl)azetidin-1-yl)carbonyl)-7-fluoro-2H-1,4-benzoxazin-3(4H)-one], for which the inhibition at 10 µM was 99%.

With `O=C1COc2cc(F)c(C(=O)N3CC(COC4CCCCC4)C3)cc2N1` [Example 280, 6-((3-((cyclohexyloxy)methyl)azetidin-1-yl)carbonyl)-7-fluoro-2H-1,4-benzoxazin-3(4H)-one], the inhibition at 10 µM was determined as 102%.

The same test, now with this note: MAGL inhibitory rate at 10 μM test compound; 60 min preincubation with His-hMAGL, 2-arachidonylglycerol substrate, 10 min reaction at room temperature; 10 µM.
With `CC(Oc1ccc(F)c(F)c1)C1CN(C(=O)c2cc3c(cc2F)OCC(=O)N3)C1` (stereo not shown) [Example 313, 6-((3-(1-(3,4-difluorophenoxy)ethyl)azetidin-1-yl)carbonyl)-7-fluoro-2H-1,4-benzoxazin-3(4H)-one], the “% inhibition (10 μM)” value was 103%.
